In patent publication US20220402948A1, “EGFR INHIBITOR, COMPOSITION AND PREPARATION METHOD THEREFOR” (BETTA PHARMACEUTICALS CO., LTD., priority 2019, published 2022) one finds GI50 and IC50 data, which are given here for 15 compounds.

pIC50: −log10 of the molar value.

Test [1] deals with Ba/F3 cells with EGFR Δ19del/T790M/C797S mutation gene stably overexpressed (Homo sapiens, UniProt P00533, T790M/C797S, cells depend on it, form not given). As to the kind of experiment: Ba/F3-Δ19del/T790M/C797S cell proliferation assay (CellTiter Glo, 72 hours). In kind it is cell-based. The settings on record: Table 2, read-out: EGFR Δ19del/T790M/C797S IC50. The essentials: (§1)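 Ba/F3 cells stably overexpressing wild-type EGFR or EGFR Δ19del/T790M/C797S were seeded at 2000 cells/well and incubated 72 h with compound. Viability was read by CellTiter-Glo luminescence, and IC50 came from a four-parameter logistic fit of signal against log concentration.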
(In general: Cellular ATP, detected with luciferase, serves as a proxy for viable cell number.)

Test [2] concerns the target EGFR WT (Homo sapiens, UniProt P00533). As to the kind of experiment: EGFR WT kinase test (mobility variation analysis, Caliper EZ Reader). In kind it is biochemical. The conditions noted are these: kinase enzymatic activity, Table 1. The procedure, abridged:
(§2)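 Read-out is substrate-to-product conversion by mobility shift, stopped after incubation at room temperature with ATP and substrate, following a 10-minute room-temperature compound–enzyme pre-incubation. IC50 obtained by four-parameter variable-slope fitting of inhibition normalized between enzyme-free and uninhibited controls.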

Test [3] concerns the target IGF1R (Homo sapiens, UniProt P08069). Kind of test: IGF1R kinase test (mobility variation analysis, Caliper EZ Reader). The settings on record: kinase enzymatic activity, Table 1; read-out: EGFR IGF1R IC50. In kind it is biochemical. The procedure, abridged: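 Mobility-shift readout of substrate conversion, normalised to positive (no compound) and negative (no kinase) controls, gives % inhibition and IC50 by four-parameter fit. Compounds, 3-fold dilutions over 10 concentrations starting at 3000 nM, preincubated 10 min with kinase before ATP/substrate start; room temperature.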

In test [4] the target is Ba/F3-EGFR wild-type cell line (Homo sapiens, UniProt P00533). Kind of test: Ba/F3-EGFR wild-type cell proliferation assay (CellTiter Glo, 72 hours). The format is cell-based. The settings on record: Table 2, read-out: EGFR WT IC50. The essentials:
as §1

In test [5] the test system is A431. As to the kind of experiment: A431 cell proliferation assay (CellTiter Glo, 72 hours). The conditions noted are these: Homo sapiens, A-431, 72 h, cell proliferation, A431, 72 hours, Table 2; read-out: A431 IC50. The format is cell-based. The procedure, abridged: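 Luminescence (CellTiter-Glo) after 72 h treatment gives viability, fitted by nonlinear regression to yield IC50. Cells seeded at 2000 per well; nine 3-fold concentrations from 1000 nM, DMSO final 0.1% (0.5% for certain compounds).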

Test [6] has as its target EGFRΔ19del/T790M/C797S (Homo sapiens, UniProt P00533, T790M/C797S, form not given). As to the kind of experiment: EGFR Δ19del/T790M/C797S kinase test (mobility variation analysis, Caliper EZ Reader). In kind it is biochemical. The conditions noted are these: kinase enzymatic activity, Table 1. The procedure, abridged: as §2

IGF1R, sequence (P08069 31-1367, species assumed): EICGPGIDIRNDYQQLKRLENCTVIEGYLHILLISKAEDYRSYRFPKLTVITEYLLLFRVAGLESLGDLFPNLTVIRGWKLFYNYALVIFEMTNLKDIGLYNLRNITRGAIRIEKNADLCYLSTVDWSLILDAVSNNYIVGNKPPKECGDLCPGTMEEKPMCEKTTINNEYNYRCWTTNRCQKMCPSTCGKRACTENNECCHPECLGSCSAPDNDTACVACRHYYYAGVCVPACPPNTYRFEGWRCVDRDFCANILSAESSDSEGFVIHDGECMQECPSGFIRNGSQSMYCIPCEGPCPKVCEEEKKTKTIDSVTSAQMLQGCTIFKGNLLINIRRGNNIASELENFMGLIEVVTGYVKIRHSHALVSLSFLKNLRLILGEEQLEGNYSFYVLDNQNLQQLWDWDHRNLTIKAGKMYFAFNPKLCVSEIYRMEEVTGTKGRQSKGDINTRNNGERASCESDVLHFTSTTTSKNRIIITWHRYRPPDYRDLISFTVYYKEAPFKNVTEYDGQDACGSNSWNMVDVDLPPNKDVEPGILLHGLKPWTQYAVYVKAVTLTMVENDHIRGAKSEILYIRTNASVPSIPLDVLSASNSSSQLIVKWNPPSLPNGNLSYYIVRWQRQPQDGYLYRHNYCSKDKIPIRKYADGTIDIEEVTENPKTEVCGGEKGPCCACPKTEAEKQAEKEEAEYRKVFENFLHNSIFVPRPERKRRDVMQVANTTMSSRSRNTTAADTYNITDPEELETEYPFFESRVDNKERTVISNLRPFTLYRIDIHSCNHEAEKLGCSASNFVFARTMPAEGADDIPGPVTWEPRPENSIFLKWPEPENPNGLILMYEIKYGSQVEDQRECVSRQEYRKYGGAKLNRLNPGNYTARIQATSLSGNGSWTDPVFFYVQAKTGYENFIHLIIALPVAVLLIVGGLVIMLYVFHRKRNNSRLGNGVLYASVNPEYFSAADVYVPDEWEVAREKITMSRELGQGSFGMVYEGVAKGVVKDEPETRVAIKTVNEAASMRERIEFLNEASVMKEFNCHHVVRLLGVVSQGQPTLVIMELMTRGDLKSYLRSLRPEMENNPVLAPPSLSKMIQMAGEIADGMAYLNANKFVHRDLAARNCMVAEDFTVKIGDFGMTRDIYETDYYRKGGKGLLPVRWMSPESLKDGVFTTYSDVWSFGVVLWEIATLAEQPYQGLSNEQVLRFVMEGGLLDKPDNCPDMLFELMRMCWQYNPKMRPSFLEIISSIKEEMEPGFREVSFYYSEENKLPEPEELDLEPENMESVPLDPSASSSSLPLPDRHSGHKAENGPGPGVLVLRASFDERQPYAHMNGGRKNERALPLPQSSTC
Ba/F3-EGFR wild-type cell line, sequence (P00533 whole entry, change not shown): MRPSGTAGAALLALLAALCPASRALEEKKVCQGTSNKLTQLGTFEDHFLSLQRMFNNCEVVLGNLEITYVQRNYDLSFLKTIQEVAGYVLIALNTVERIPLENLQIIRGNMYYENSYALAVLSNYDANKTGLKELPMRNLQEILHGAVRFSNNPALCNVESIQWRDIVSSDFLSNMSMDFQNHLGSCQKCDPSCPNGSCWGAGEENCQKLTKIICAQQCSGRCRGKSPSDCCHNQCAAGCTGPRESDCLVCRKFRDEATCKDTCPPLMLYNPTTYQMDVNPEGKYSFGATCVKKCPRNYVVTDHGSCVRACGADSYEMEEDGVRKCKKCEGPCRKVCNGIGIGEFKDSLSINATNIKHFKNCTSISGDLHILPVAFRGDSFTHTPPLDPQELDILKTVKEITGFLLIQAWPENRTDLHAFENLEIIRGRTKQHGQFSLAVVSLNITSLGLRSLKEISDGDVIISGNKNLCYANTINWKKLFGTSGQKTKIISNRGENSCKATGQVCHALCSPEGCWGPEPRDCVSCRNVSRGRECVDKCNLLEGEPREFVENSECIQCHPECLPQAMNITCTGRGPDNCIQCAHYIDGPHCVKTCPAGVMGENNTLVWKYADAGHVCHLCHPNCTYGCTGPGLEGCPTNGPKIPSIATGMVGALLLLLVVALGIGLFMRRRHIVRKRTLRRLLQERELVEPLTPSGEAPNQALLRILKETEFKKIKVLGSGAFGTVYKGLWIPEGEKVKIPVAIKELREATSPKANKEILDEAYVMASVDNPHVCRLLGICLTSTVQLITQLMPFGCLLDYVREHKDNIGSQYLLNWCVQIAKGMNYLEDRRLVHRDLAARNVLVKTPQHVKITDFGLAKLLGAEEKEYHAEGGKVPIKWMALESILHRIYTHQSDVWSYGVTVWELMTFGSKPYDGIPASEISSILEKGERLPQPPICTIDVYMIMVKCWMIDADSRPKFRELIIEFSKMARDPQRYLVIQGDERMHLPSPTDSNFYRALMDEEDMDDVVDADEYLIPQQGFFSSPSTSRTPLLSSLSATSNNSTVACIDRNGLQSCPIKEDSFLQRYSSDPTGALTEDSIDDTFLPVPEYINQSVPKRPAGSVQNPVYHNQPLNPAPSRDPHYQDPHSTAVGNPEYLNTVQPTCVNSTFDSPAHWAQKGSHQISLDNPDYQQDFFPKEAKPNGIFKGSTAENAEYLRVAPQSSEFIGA
EGFR WT, sequence (P00533 25-1210): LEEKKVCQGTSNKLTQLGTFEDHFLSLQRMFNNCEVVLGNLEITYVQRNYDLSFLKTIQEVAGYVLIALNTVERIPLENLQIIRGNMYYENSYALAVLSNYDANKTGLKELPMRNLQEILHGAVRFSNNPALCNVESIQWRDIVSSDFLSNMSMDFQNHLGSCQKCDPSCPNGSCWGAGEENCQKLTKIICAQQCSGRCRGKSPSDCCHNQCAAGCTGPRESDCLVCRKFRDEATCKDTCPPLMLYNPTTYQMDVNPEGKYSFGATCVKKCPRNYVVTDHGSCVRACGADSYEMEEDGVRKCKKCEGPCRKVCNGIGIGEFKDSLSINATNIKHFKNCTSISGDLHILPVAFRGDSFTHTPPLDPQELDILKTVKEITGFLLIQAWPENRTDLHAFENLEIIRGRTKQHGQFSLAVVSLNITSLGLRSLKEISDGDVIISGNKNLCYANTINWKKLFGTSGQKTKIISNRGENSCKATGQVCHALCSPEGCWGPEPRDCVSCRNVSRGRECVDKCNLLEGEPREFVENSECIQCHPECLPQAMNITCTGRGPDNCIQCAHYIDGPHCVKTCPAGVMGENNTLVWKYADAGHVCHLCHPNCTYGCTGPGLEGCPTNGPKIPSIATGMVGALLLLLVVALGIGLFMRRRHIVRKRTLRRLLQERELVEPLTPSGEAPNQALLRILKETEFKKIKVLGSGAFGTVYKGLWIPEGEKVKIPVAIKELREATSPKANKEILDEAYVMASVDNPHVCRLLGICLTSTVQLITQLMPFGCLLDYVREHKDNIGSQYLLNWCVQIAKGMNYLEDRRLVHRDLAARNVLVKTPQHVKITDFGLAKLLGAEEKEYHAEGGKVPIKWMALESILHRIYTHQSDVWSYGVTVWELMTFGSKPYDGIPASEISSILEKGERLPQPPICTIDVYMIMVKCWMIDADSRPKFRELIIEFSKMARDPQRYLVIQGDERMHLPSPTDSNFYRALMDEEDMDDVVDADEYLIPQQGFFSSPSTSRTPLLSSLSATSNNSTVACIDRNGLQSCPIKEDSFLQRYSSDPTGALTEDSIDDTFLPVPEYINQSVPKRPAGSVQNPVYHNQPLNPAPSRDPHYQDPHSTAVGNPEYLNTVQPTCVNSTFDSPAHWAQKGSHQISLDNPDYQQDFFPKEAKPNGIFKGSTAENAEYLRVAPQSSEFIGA
Ba/F3 cells with EGFR Δ19del/T790M/C797S mutation gene stably overexpressed, sequence (P00533 with tags, fused parts or gaps DEL746-750/T790M/C797S, form open): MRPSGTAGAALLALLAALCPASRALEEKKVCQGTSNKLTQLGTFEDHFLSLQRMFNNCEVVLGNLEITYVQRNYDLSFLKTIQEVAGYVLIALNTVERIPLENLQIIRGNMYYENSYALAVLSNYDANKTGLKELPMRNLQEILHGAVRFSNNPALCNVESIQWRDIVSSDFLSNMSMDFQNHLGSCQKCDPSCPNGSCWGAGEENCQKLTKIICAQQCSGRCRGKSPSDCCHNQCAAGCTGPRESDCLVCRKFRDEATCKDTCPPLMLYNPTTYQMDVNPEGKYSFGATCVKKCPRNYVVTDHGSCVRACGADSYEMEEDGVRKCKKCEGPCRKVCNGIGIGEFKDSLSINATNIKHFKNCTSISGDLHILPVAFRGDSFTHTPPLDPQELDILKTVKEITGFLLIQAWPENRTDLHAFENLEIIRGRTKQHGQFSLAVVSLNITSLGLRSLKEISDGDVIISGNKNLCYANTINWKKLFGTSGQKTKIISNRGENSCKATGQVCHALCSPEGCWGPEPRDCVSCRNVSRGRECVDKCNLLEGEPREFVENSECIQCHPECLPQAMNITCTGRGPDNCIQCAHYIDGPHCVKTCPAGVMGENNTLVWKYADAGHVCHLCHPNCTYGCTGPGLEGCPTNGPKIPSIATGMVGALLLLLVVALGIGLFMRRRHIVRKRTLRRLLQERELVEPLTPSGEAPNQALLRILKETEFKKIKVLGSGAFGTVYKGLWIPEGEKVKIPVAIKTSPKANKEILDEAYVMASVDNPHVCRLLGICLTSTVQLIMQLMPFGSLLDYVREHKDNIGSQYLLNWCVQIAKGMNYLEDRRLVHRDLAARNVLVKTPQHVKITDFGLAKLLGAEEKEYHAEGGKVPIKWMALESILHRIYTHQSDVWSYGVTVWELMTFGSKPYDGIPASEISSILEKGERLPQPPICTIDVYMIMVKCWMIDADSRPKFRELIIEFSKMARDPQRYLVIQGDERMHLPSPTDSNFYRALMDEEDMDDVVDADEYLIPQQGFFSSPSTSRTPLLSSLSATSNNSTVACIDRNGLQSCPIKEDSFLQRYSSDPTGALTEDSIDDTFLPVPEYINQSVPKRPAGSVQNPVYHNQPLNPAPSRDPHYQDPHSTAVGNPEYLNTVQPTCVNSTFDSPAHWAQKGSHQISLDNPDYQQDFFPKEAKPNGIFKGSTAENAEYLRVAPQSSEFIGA

By pIC50 is commonly meant the negative decadic logarithm of the IC50, by convention in mol/L. Consider `CCc1cc(Nc2ncc(Br)c(Nc3ccc(-c4cscn4)cc3P(C)(C)=O)n2)c(OC)cc1N1CCC(N2CCN(C)CC2)CC1` [Compound 28, (2-((5-Bromo-2-((5-ethyl-2-methoxy-4-(4-(4-methylpiperazin-1-yl)piperidin-1-yl)phenyl)amino)pyrimidin-4-yl)amino)-5-(thiazol-4-yl)phenyl)dimethylphosphine oxide], for which the values for the GI50 in test [1] and in test [4] were 9.9 nM and 171 nM, respectively. The negative logarithm of the IC50 (pIC50) in test [2] was 7.92; in test [3], 7.21; in test [5], 6.11; in test [6], 9.70.
In the case of `CCc1cc(Nc2ncc(Br)c(Nc3ccc(-c4ccccc4F)cc3P(C)(C)=O)n2)c(OC)cc1N1CCC(N2CCOCC2)CC1` [Compound K-048], the values for the GI50 in test [1] and in test [4] were 12.9 nM and 156 nM, respectively. Besides, the negative-log IC50 (pIC50) in test [2] is 7.11; in test [3] it was 6.23; in test [5], 4.64; in test [6] it was 9.00.
On to `C#Cc1cnn(-c2ccc(Nc3nc(Nc4cc(CC)c(N5CCC(N6CCN(C)CC6)CC5)cc4OC)ncc3Br)c(P(C)(C)=O)c2)c1` [Compound K-009, (2-((5-Bromo-2-((5-ethyl-2-methoxy-4-(4-(4-methylpiperazin-1-yl)piperidin-1-yl)phenyl)amino)pyrimidin-4-yl)amino)-5-(4-ethynyl-1H-pyrazol-1-yl)phenyl)dimethylphosphine oxide], for which the GI50 in test [1] turned out to be 16.4 nM; in test [4] it was 268 nM. Also, the negative-log IC50 (pIC50) in test [2] was 7.68; in test [3], 6.78; in test [5], 5.61; in test [6] it was 9.64.
Take `COc1cnn(-c2ccc(Nc3nc(Nc4cc(OC)c(N5CCC(O)CC5)cc4C)ncc3Br)c(P(C)(C)=O)c2)c1` [Compound K-039, (2-((5-Bromo-2-((4-(4-hydroxypiperidin-1-yl)-5-methoxy-2-methylphenyl)amino)pyrimidin-4-yl)amino)-5-(4-methoxy-1H-pyrazol-1-yl)phenyl)dimethylphosphine oxide]: the GI50 was 27.5 nM in test [1] and 523 nM in test [4]. Besides, the pIC50 in test [2] was 7.84; in test [3], 7.34; in test [5], less than 5.00; in test [6], 10.00.
In the case of `COc1cc(Nc2ncc(Br)c(Nc3ccc(-c4cnn(C)n4)c(F)c3P(C)(C)=O)n2)c(C)cc1N1CC(C)OC(C)C1` (stereo not drawn) [Compound K-037, (6-((5-Bromo-2-((4-(2,6-dimethylmorpholine)-5-methoxy-2-methylphenyl)amino)pyrimidin-4-yl)amino)-2-fluoro-3-(2-methyl-2H-1,2,3-triazol-4-yl)phenyl)dimethylphosphine oxide], the results for the GI50 in test [1] and in test [4] were 10.9 nM and 374 nM, respectively. Also, the pIC50 was 6.90 in test [2], 6.60 in test [3], 5.12 in test [5] and 9.10 in test [6].
Take `CCc1cc(Nc2ncc(Cl)c(Nc3ccc(-c4cnn5c4CCCC5)cc3P(C)(C)=O)n2)c(OC)cc1N1CCC(N2CCN(C)CC2)CC1` [Compound K-104, (2-((5-Chloro-2-((5-ethyl-2-methoxy-4-(4-(4-methylpiperazin-1-yl)piperidin-1-yl)phenyl)amino)pyrimidin-4-yl)amino)-5-(4,5,6,7-tetrahydropyrazolo[1,5-a]pyridin-3-yl)phenyl)dimethylphosphine oxide]: the figures for the GI50 in test [1] and in test [4] were 64.2 nM and 204 nM, respectively. Also, the negative logarithm of the IC50 (pIC50) in test [2] is 7.64; in test [3] it was 6.42; in test [5], 5.49; in test [6] it was 9.40.
In the case of `CCc1cc(Nc2ncc(Br)c(Nc3ccc(-c4ncco4)cc3P(C)(C)=O)n2)c(OC)cc1N1CCC(N2CCN(C)CC2)CC1` [Compound 27], the GI50 stood at 7.5 nM in test [1] and 159 nM in test [4]. For the same compound, the pIC50 is 7.81 in test [2], 7.14 in test [3], 6.06 in test [5] and 9.52 in test [6].
For `CCc1cc(Nc2ncc(Br)c(Nc3ccc(-c4cnn(C)n4)c(F)c3P(C)(C)=O)n2)c(OC)cc1N1CCC(N2CCN(C)CC2)CC1` [Compound K-007, (6-((5-Bromo-2-((5-ethyl-2-methoxy-4-(4-(4-methylpiperazin-1-yl)piperidin-1-yl)phenyl)amino)pyrimidin-4-yl)amino)-2-fluoro-3-(2-methyl-2H-1,2,3-triazol-4-yl)phenyl)dimethylphosphine oxide], the GI50 in test [1] was 3.2 nM; in test [4], 130 nM. Besides, the pIC50 in test [2] was 8.28; in test [3], 7.26; in test [5] it was 5.84; in test [6] it was 10.00.
Turning to `COc1cnn(-c2ccc(Nc3nc(Nc4cc(OC)c(N5CCOCC5)cc4C)ncc3Br)c(P(C)(C)=O)c2)c1` [Compound K-023, (2-((5-Bromo-2-((5-methoxy-2-methyl-4-morpholinophenyl)amino)pyrimidin-4-yl)amino)-5-(4-methoxy-1H-pyrazol-1-yl)phenyl)dimethylphosphine oxide], the figures for the GI50 in test [1] and in test [4] were 5 nM and 89.5 nM, respectively. The negative logarithm of the IC50 (pIC50) in test [2] is 7.38; in test [3], 6.87; in test [5], 5.89; in test [6] it was 9.70.
On to `CCc1cc(Nc2ncc(Br)c(Nc3ccc(-c4cnn(C)c4)cc3P(C)(C)=O)n2)c(OC)cc1N1CCC(N(C)C)CC1` [Compound K-044, (2-((5-Bromo-2-((4-(4-(dimethylamino)piperidin-1-yl)-5-ethyl-2-methoxyphenyl)amino)pyrimidin-4-yl)amino)-5-(1-methyl-1H-pyrazol-4-yl)phenyl)dimethylphosphine oxide], for which the values for the GI50 in test [1] and in test [4] were 3.8 nM and 166 nM, respectively. Moreover, the negative-log IC50 (pIC50) in test [2] is 8.09; in test [3] it was 7.42; in test [5], 6.55; in test [6], 9.52.
`CCc1cc(Nc2ncc(Br)c(Nc3ccc(-n4cc(COC)cn4)cc3P(C)(C)=O)n2)c(OC)cc1N1CCC(N2CCN(C)CC2)CC1` [Compound K-090]: the results for the GI50 in test [1] and in test [4] were 18.4 nM and 467 nM, respectively. Further, the pIC50 is 7.55 in test [2], 6.69 in test [3], 5.63 in test [5] and 9.52 in test [6].
On to `CCOc1cc(Nc2ncc(Br)c(Nc3ccc(-c4cnn(C)n4)c(F)c3P(C)(C)=O)n2)c(C)cc1N1CCOCC1` [Compound K-034, (6-((5-Bromo-2-((5-ethoxy-2-methyl-4-morpholinophenyl)amino)pyrimidin-4-yl)amino)-2-fluoro-3-(2-methyl-2H-1,2,3-triazol-4-yl)phenyl)dimethylphosphine oxide], for which the GI50 in test [1] turned out to be 20.9 nM; in test [4], 219 nM. In addition, the pIC50 is 7.19 in test [2], 7.43 in test [3], 5.91 in test [5] and 9.40 in test [6].
In the case of `CCc1cc(Nc2ncc(Br)c(Nc3ccc(-c4cnc(OC)nc4)cc3P(C)(C)=O)n2)c(OC)cc1N1CCC(N2CCN(C)CC2)CC1` [Compound 34, (2-((5-Bromo-2-((5-ethyl-2-methoxy-4-(4-(4-methylpiperazin-1-yl)piperidin-1-yl)phenyl)amino)pyrimidin-4-yl)amino)-5-(2-methoxypyrimidin-5-yl)phenyl)dimethylphosphine oxide], the GI50 in test [1] turned out to be 5.8 nM; in test [4], 180 nM. Besides, the pIC50 in test [2] is 7.53; in test [3], 7.04; in test [5], 5.29; in test [6], 9.70.
As for `COc1cnn(-c2ccc(Nc3nc(Nc4cc(OC)c(N5CCOCC5)cc4C4CC4)ncc3Br)c(P(C)(C)=O)c2)c1` [Compound K-026, (2-((5-Bromo-2-((2-cyclopropyl-5-methoxy-4-morpholinophenyl)amino)pyrimidin-4-yl)amino)-5-(4-methoxy-1H-pyrazol-1-yl)phenyl)dimethylphosphine oxide], the GI50 in test [1] came to 17.3 nM; in test [4] it was 946 nM. In addition, the pIC50 in test [2] was 6.73; in test [3], 6.38; in test [5] it was less than 5.00; in test [6], 9.22.
`CCc1cc(Nc2ncc(Br)c(Nc3ccc(-c4cnccn4)cc3P(C)(C)=O)n2)c(OC)cc1N1CCC(N2CCN(C)CC2)CC1` [Compound 78, (2-((5-Bromo-2-((5-ethyl-2-methoxy-4-(4-(4-methylpiperazin-1-yl)piperidin-1-yl)phenyl)amino)pyrimidin-4-yl)amino)-5-(pyrazin-2-yl)phenyl)dimethylphosphine oxide]: the GI50 in test [1] is 7.2 nM; in test [4] it was 134 nM. Further, the pIC50 in test [2] is 7.90; in test [3], 7.03; in test [5] it was 5.96; in test [6], 9.70.
